{"source": "patent US9592211B2", "about": "“Compositions for improvement of brain function” (GRESPO AB, priority 2012, dated 2017)", "key": {"[1]": {"tested_on": "nestin-positive neurons in hippocampal CA1 area", "assay": "Induction of hippocampal neurogenesis (nestin immunohistochemistry), Example 1", "assay_type": "in vivo, Mongolian gerbils", "details": "old gerbils, 6 month feeding in chow, compared to age matched controls (FIG. 1)", "protocol": "After the course of treatment as specified under Materials and Methods, the animals were sacrificed and the brains were analysed histologically to quantitate hippocampal neurogenesis.\nNestin is a marker for immature neurons. Nestin positive cells were found in the hippocampal layer of the pyramidal neurons. […] In some cells long processes that seem to be dendrites extended into deeper layers of the hippocampus, and these processes were nestin positive as well. In all of the CA fields of the hippocampus (CA1-CA3) these cells were structurally similar to pyramidal cells. The structural similarities between nestin positive cells and neurons allow regarding this type of cells as newly generated neurons.\nIn Example 1. the animals were fed Labofeed B standard chow (from Labofeed company; Andrzej Morawski Feed Production Plant, Kcynia near. Bydgoszcz, Poland) supplemented with test compounds as specified in table 1.\nThe lipase, protease and amylase were obtained as capsules containing 30,000 USP units/capsule of lipase, 20,000 USP units/capsule of protease, and 3,000 USP units/capsule of amylase) prepared as shown in Table 2. […]\nSamplings for immunohistochemistry (one hemisphere of each animal) were postfixed overnight in the same fixative at +4° C. […] Then slices were washed out, placed on histological slides and mounted with Fluorescence Mounting Media (Dako, Denmark). […]"}, "Mongolian gerbils": {"tested_on": "Mongolian gerbils", "assay": "T-maze spontaneous alternation, cognitive function/memory, Example 2", "assay_type": "in vivo", "details": "old gerbils, feeding in chow, tested once (FIG. 2)", "description": "During the course of the treatment, the animals were subjected to T-maze test measuring cognitive function and/or memory as specified under Materials and Methods.\nFor long-lasting feeding (during 6 month) 75 old male Mongolian gerbils, randomly selected, were used. Those selected were approximately 1.5 years of age at start of the experiment with the mean body weight of 88.0±6 g and 2 years of age at experiment finish.\nSubjects were first placed in the start arm of the T Maze. Upon leaving the start arm, subjects chose between entering either the left or the right goal arm. […] The percentage of alternation (number of turns in each goal arm) and total trial duration were recorded."}, "[2]": {"tested_on": "synaptic terminals in hippocampal CA1 zone", "assay": "Synaptic morphology alterations (electron microscopy), Example 4", "assay_type": "in vivo, Mongolian gerbils", "excerpt": "In the middle portion of the CA1 stratum radiatum analyzed in the study, the great majority of synaptic inputs are excitatory and they preferentially terminate on the […], Taking into consideration these aspects, we could focus our analyses on the pool of excitatory CA1 spine synapses.\nAfter perfusion the brains were isolated and separated on two hemispheres.\nThe hippocampus from another hemisphere of each animal was isolated and cut in 400-μm-thick transverse slices by a chopper (McIlwain tissue chopper, Great Britain). […] Tissue slices were then dehydrated in an ascending series of ethanol followed by dry acetone and embedded in EPON resin according to official protocol. The sections were produced by ultramicrotome LKB-8800. Toluidine blue-stained semi-thin (1 μm) sections of hippocampus were used to localize hippocampal CA1 area. For electron microscopy, ultra-thin sections (70 nm) from the middle portion of CA1 stratum pyramidale and stratum radiatum were stained with uranyl acetate and lead citrate.\nThe images were taken with JEM-100CX (Jeol, Japan) transmission electron microscope at magnification of ×10 000.\nPerforated synapse was defined as a synapse with discontinuous PSD. The synapses with more than one spine contacting the same presynaptic terminal were classified as multiple spine boutons (MSB).\nFor the analysis of SV's distribution, x- and y-coordinates of SV profile centers and points tracing the active zone of a synapse were marked with UTHSCSA ImageTool software (version 3, University of Texas, San Antonio, Tex.; ftp://maxrad6.uthscsa.edu) on digitized micrographs, using the point tool.\nAZD and NND quantities were pooled together per group. […]\nEstimations of synapse density were carried out on single photos by counting all asymmetric spine synapses (determined by the presence of a spine head with prominent PSD and docked synaptic vesicles (SV) in the active zone of a presynaptic terminal) on the micrograph surface limited by the counting frame (36 mkm^2 test area) followed by calculation of the number of synapses per surface unit area."}}, "note": "Entries after “also recorded” stand apart in the source; their conditions may differ."}
{"compound": "O=C(O)CCC(=O)C(=O)O", "note": "[AKG, alpha-ketoglutaric acid]", "values": [{"measurement": "hippocampal neurogenesis (number of nestin-positive neurons per 1 mm of pyramidal layer length in hippocampal CA1 area)", "setting": "[1]", "value": "increased hippocampal neurogenesis; also recorded: increase neurogenesis"}, {"measurement": "cognition (percentage of spontaneous alterations in T-maze test)", "setting": "Mongolian gerbils", "value": "improved cognition"}, {"measurement": "number of SVs (synaptic vesicles) per presynaptic terminal", "setting": "[2]; hippocampal CA1, compared to control old animals (FIG. 6A)", "value": "increased"}, {"measurement": "number of synaptic terminals (synaptic contacts) per unit area (100 μm^2), increased to", "setting": "[2]; hippocampal CA1, old gerbils after long time treatment, old control three times lower than young (FIG. 4)", "value": 55, "unit": "%"}, {"measurement": "distance from a synaptic vesicle to the active zone (AZD)", "setting": "[2]; hippocampal synapses, old gerbils (FIG. 7)", "value": "increase of a distance from a vesicle to the active zone"}]}
